The source of these data is PubChem BioAssay (NCI).

SMILES strings stand for the structures. Where “and” joins values, the source holds several entries; their conditions need not be identical. Identical values can stand only once.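 In this assay, cells in 96-well plates receive the compound at five concentrations for 48 hours. Endpoints are linearly interpolated between the surrounding concentrations. GI50 = concentration required for 50% inhibition of growth. Definition used: TGI = concentration required for complete inhibition of growth.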 Where only a bound is given, the exact number is not on record here.

Test systems include SK-OV-3 ovarian; NCI-H460 lung; M14 melanoma; NCI/ADR-RES ovarian; MOLT-4 leukemia; CCRF-CEM leukemia; SNB-19 CNS; DU-145 prostate; OVCAR-4 ovarian; MDA-N.
Holding throughout (assay): NCI anticancer screen, dose series, 48 h

As for `COc1ccc2c(c1)C(=O)c1c-2n(CCCN=[N+]=[N-])c(=O)c2cc([N+](=O)[O-])ccc12`, the values for the GI50 with SK-OV-3 ovarian, in the test on MOLT-4 leukemia and in the test on CCRF-CEM leukemia were 7.14 µM, less than 0.001 µM and less than 0.001 µM, respectively. For the same molecule, the TGI in the test with SK-OV-3 ovarian was 28.1 µM; with NCI-H460 lung, 0.0469 µM; with M14 melanoma, 1.3 µM; in the test on NCI/ADR-RES ovarian it was greater than 100 µM; in the test on CCRF-CEM leukemia, 0.0275 µM and 0.0272 µM.
For the molecule `O=C(N/N=C\c1ccc(N(CCCl)CCCl)cc1)c1cccnc1`, the GI50 is 45 µM with SNB-19 CNS; 3.83 µM with NCI-H460 lung; 60.2 µM in the test on M14 melanoma; 28.3 µM in the test on NCI/ADR-RES ovarian; 6.95 µM with MOLT-4 leukemia; 11.4 µM in the test with DU-145 prostate. In the test with CCRF-CEM leukemia, the GI50 was 5.91 µM. Besides, the TGI in the test on SNB-19 CNS, in the test with NCI-H460 lung, with M14 melanoma, in the test with NCI/ADR-RES ovarian, with MOLT-4 leukemia and in the test with DU-145 prostate was greater than 100 µM in each case. The TGI with CCRF-CEM leukemia is greater than 100 µM.
`N/C(=C\c1ccc(/C=C(\NC(=O)c2ccccc2)c2nc3c([nH]2)C(=O)c2ccccc2C3=O)cc1)c1nc2c([nH]1)C(=O)c1ccccc1C2=O`: the TGI stood at 48.8 µM with SK-OV-3 ovarian; 28.4 µM in the test with SNB-19 CNS; 34 µM in the test with OVCAR-4 ovarian; 36.4 µM in the test with NCI-H460 lung; 30.4 µM in the test on M14 melanoma; 29.3 µM in the test on MOLT-4 leukemia. This molecule also yielded a TGI in the test on CCRF-CEM leukemia of 57.2 µM.
Consider `CN(CCO)CCC1COc2ccccc2O1` (stereo not drawn), for which the TGI in the test on SK-OV-3 ovarian, in the test on SNB-19 CNS, in the test on OVCAR-4 ovarian, with NCI-H460 lung, with M14 melanoma and in the test with NCI/ADR-RES ovarian was greater than 10 µM each time. For the same molecule, the TGI in the test with MDA-N, in the test on MOLT-4 leukemia, in the test on DU-145 prostate and in the test with CCRF-CEM leukemia was greater than 10 µM each time.
On to `N#CC1(C#N)C(=O)c2ccncc2C1=O`, for which the TGI in the test on SK-OV-3 ovarian, with SNB-19 CNS, in the test with OVCAR-4 ovarian, in the test on NCI-H460 lung, with M14 melanoma and in the test on NCI/ADR-RES ovarian was greater than 100 µM throughout. In addition, the TGI in the test on MDA-N, in the test on DU-145 prostate and in the test with CCRF-CEM leukemia was greater than 100 µM each time.
In the case of `N#C[S-].[Ce+3].c1ccc(-c2ccccn2)nc1.c1ccc(-c2ccccn2)nc1.c1ccc(-c2ccccn2)nc1`, the GI50 in the test with SK-OV-3 ovarian was 27 µM; in the test on SNB-19 CNS, 45.6 µM; in the test with OVCAR-4 ovarian it was 13.2 µM; in the test on NCI-H460 lung it was 13.1 µM; in the test with M14 melanoma, 6.24 µM. In addition, the TGI in the test with SK-OV-3 ovarian is 60.7 µM; in the test on SNB-19 CNS, greater than 100 µM; in the test on OVCAR-4 ovarian, greater than 100 µM; in the test on NCI-H460 lung, greater than 100 µM; in the test with M14 melanoma, 24.7 µM.
Regarding `CCOC(=O)NC(=O)c1cn(CCN(CCO)C(=O)NCCCCCCNC(=O)N(CCO)CCn2cc(C(=O)NC(=O)OCC)c(=O)[nH]c2=O)c(=O)[nH]c1=O`, the TGI with SNB-19 CNS, in the test with OVCAR-4 ovarian, in the test on NCI-H460 lung, with NCI/ADR-RES ovarian, with MOLT-4 leukemia and with CCRF-CEM leukemia was greater than 100 µM each time.
`Brc1ccc2nc(-c3cccs3)nc(N3CCN(c4ccccc4)CC3)c2c1`: the TGI in the test with SK-OV-3 ovarian, in the test on SNB-19 CNS, in the test on OVCAR-4 ovarian, in the test on NCI-H460 lung, in the test on M14 melanoma and with NCI/ADR-RES ovarian was greater than 100 µM in each case. In the test on DU-145 prostate, the TGI is greater than 100 µM.
Regarding `COc1nc2ccc(Cl)c(C(O)c3ccccc3)c2nc1OC` (stereo not drawn), the TGI with SNB-19 CNS is greater than 100 µM; in the test on OVCAR-4 ovarian, greater than 100 µM; in the test on NCI-H460 lung, greater than 100 µM; in the test with M14 melanoma, 38.8 µM; in the test with NCI/ADR-RES ovarian, 63.4 µM; with MDA-N it was 54.8 µM. Besides, the TGI in the test on MOLT-4 leukemia is 46.4 µM; in the test on DU-145 prostate it was greater than 100 µM; with CCRF-CEM leukemia, 29.5 µM.
Consider `COC(Cc1cc(C(O)(c2ccc(C(C)(C)C)cc2)c2cc(CC(OC)(c3cc(C(OC)(c4ccc(C(C)(C)C)cc4)c4ccc(C(C)(C)C)cc4)c(C)cc3C)c3cc(C(OC)(c4ccc(C(C)(C)C)cc4)c4ccc(C(C)(C)C)cc4)c(C)cc3C)c(C)cc2C)c(C)cc1C)(c1cc(C(OC)(c2ccc(C(C)(C)C)cc2)c2ccc(C(C)(C)C)cc2)c(C)cc1C)c1cc(C(OC)(c2ccc(C(C)(C)C)cc2)c2ccc(C(C)(C)C)cc2)c(C)cc1C`, for which the TGI with SK-OV-3 ovarian, in the test on SNB-19 CNS, in the test with OVCAR-4 ovarian, in the test on NCI-H460 lung, with M14 melanoma and in the test on NCI/ADR-RES ovarian was greater than 75 µM in each case. The TGI with MDA-N, with MOLT-4 leukemia, with DU-145 prostate and in the test with CCRF-CEM leukemia was greater than 75 µM each time.
Turning to `COc1c(O)cc2c(c1O)C(=O)C(Cc1ccc(O)cc1)CO2` (stereo not drawn), the TGI in the test with SK-OV-3 ovarian, in the test on SNB-19 CNS, in the test on OVCAR-4 ovarian, in the test on NCI-H460 lung, in the test with M14 melanoma and with NCI/ADR-RES ovarian was greater than 100 µM in each case. The TGI in the test with MDA-N, with MOLT-4 leukemia and with DU-145 prostate was greater than 100 µM in each case.
Consider `CC1=C/C(=N\NS(=O)(=O)c2ccc([N+](=O)[O-])cc2)CC(C)(C)C1`, for which the TGI with SK-OV-3 ovarian, in the test with SNB-19 CNS, in the test with NCI-H460 lung, with M14 melanoma, in the test with NCI/ADR-RES ovarian and in the test on MDA-N was greater than 100 µM each time. Also, the TGI in the test on MOLT-4 leukemia, in the test with DU-145 prostate and in the test on CCRF-CEM leukemia was greater than 100 µM throughout.
